Results published in patent publication US9161927B2, “Drug combinations containing PDE4 inhibitors and NSAIDs” (Boehringer Ingelheim International GmbH, priority 2009, dated 2015).
Where two headings read alike, the source gives them in different places.

Tests used:
male Wistar rats [1] = test: Experiment 3: roflumilast-mediated weight loss, leukocytosis and neutrophilia in rats, with or without SC-560 or lumiracoxib; type: in vivo, rat; conditions: for leukocytosis (white blood cells, FIG. 2B on the left) / neutrophilia (neutrophils in % of white blood cells, FIG. 2B on the right): 95 hours after t0; for leukocytosis (white blood cells, FIG. 2B on the left) / neutrophilia (neutrophils in % of white blood cells, FIG. 2B on the right) / weight loss (body weight as percentage change from t0, FIG. 2A): p.o. for four days, roflumilast 10 mg/kg at 1300, SC-560 or lumiracoxib 2 mg/kg at 0800 and 1700, compared with control group
Method: (§1) Six male Wistar rats in each group were treated for four days with the following substances (all substances are given p.o.=orally):
(§2) Group 1 (“control group”): Six male Wistar rats were given a daily dose of 0.5% Natrosol (placebo) at the times 0800, 1300 and 1700 hours.
(§3) Group 2 (“roflumilast group”): Six male Wistar rats were given a daily dose of 0.5% Natrosol (placebo) at 0800 and 1700 hours and 10 mg/kg roflumilast (PDE4 inhibitor) at 1300 hours.
(§4) Group 6 (“lumiracoxib group”): Six male Wistar rats were given a daily dose of 2 mg/kg lumiracoxib (NSAID, selective for COX-2) at the times 0800 and 1700 hours and 0.5% Natrosol at 1300 hours.
The average±standard deviation of the body weights at time t0 was 306±11 g.
At the end of the experiment (95 hours after t0 (=the time of the first administration on day 1, 0800 hours)) the proportion of white blood cells (×1000 cells/μl blood, FIG. 2B, left-hand Figure) and the proportion of neutrophils (in % of white blood cells, FIG. 2B, right-hand Figure) were determined from the blood of 5 of the rats from the individual groups.

male Wistar rats [2] = test: Experiment 4: roflumilast-mediated diarrhoea and mesentery histopathology in rats, with or without SC-560 or lumiracoxib; type: in vivo, rat; conditions: affected animals out of animals examined; p.o. for four days, 95 hours after t0; roflumilast 10 mg/kg at 1300, SC-560 or lumiracoxib 2 mg/kg at 0800 and 1700
Method: as §1, §2, §3, §4
(§5) At the end of the experiment (95 hours after t0 (=the time of the first administration on day 1, 0800 hours)) the rats from the individual groups were examined phenotypically and histopathologically for the presence of multifocal perivascular mononuclear infiltration (=inflammation parameter) in the mesentery and for the proliferation of fibroblasts in the mesentery. In addition, the occurrence of diarrhoea in the rats from the different groups was noted.

male Wistar rats [3] = test: Experiment 1: roflumilast-mediated weight loss, leukocytosis and neutrophilia in rats, with or without diclofenac
Method: as §1, §2, §3
(§6) Group 3 (“roflumilast+diclofenac group”): Six male Wistar rats were given a daily dose of 1 mg/kg diclofenac (NSAID) at the times 0800 and 1700 hours and 10 mg/kg roflumilast (PDE4 inhibitor) at 1300 hours.
(§7) Group 4 (“diclofenac group”): Six male Wistar rats were given a daily dose of 1 mg/kg diclofenac (NSAID) at the times 0800 and 1700 hours and 0.5% Natrosol (placebo) at 1300 hours.
(§8) For pharmacokinetic analysis (determining the plasma levels of the substances) on day 4 one rat from each group was used; these rats were no longer available for other parameters under investigation.
The average±standard deviation of the body weights at time t0 was 355±17 g.
At the end of the experiment (95 hours after t0 (=the time of the first administration on day 1, 0800)) the proportion of white blood cells (×1000 cells/μl blood, FIG. 1B, left-hand Figure) and the proportion of neutrophils (in % of white blood cells, FIG. 1B, right-hand Figure) were determined from the blood of 4 or 5 of the rats from the individual groups.

male Wistar rats [4] = type: in vivo; conditions: affected animals out of animals examined; p.o. for four days, 95 hours after t0; roflumilast 10 mg/kg at 1300, diclofenac 1 mg/kg at 0800 and 1700
Method: as §1, §2, §3, §6, §7, §8, §5

[5] = NSAID 2 mg/kg at 0800 and 1700 co-administered with roflumilast 10 mg/kg at 1300, p.o. for four days
[6] = 95 hours after t0, p.o. for four days, roflumilast 10 mg/kg at 1300, diclofenac 1 mg/kg at 0800 and 1700, compared with control group

COc1ccc(-n2nc(C(F)(F)F)cc2-c2ccc(Cl)cc2)cc1 [SC-560]
leukocytosis (white blood cells, FIG. 2B on the left) (male Wistar rats [1]): very similar to the control groups | neutrophilia (neutrophils in % of white blood cells, FIG. 2B on the right) (male Wistar rats [1]): very similar to the control groups | protective effect on roflumilast-mediated leukocytosis (male Wistar rats [1]; [5]): absolutely no protective effect | protective effect on roflumilast-mediated neutrophilia (male Wistar rats [1]; [5]): absolutely no protective effect | protective effect on roflumilast-mediated weight loss (male Wistar rats [1]; [5]): absolutely no protective effect | weight loss (body weight as percentage change from t0, FIG. 2A) (male Wistar rats [1]): very similar to the control groups | Diarrhoea (male Wistar rats [2]): 0/6

O=C(O)Cc1ccccc1Nc1c(Cl)cccc1Cl [diclofenac]
leukocytosis (white blood cells, FIG. 1B on the left) (male Wistar rats [3]; [6]): very similar to the control groups | neutrophilia (neutrophils in % of white blood cells, FIG. 1B on the right) (male Wistar rats [3]; [6]): very similar to the control groups | weight loss (body weight as percentage change from t0, FIG. 1A) (male Wistar rats [3]; p.o. for four days, roflumilast 10 mg/kg at 1300, diclofenac 1 mg/kg at 0800 and 1700, compared with control group): very similar to the control groups | Diarrhoea (male Wistar rats [4]): 0/6 | Mesentery: Proliferation of fibroblasts (male Wistar rats [4]): 0/5 | Mesentery: multifocal perivascular mononuclear infiltration (=inflammation parameter) (male Wistar rats [4]): 0/5

Cc1ccc(Nc2c(F)cccc2Cl)c(CC(=O)O)c1 [lumiracoxib]
leukocytosis (white blood cells, FIG. 2B on the left) (male Wistar rats [1]): very similar to the control groups | neutrophilia (neutrophils in % of white blood cells, FIG. 2B on the right) (male Wistar rats [1]): very similar to the control groups | weight loss (body weight as percentage change from t0, FIG. 2A) (male Wistar rats [1]): very similar to the control groups | Diarrhoea (male Wistar rats [2]): 0/6 | Mesentery: Proliferation of fibroblasts (male Wistar rats [2]): 0/5 | Mesentery: multifocal perivascular mononuclear infiltration (=inflammation parameter) (male Wistar rats [2]): 0/5

O=C(Nc1c(Cl)cncc1Cl)c1ccc(OC(F)F)c(OCC2CC2)c1 [roflumilast]
rats which died between day 4 and day 5 of the experiment (male Wistar rats [3]; group of six rats, roflumilast 10 mg/kg p.o. daily): one rat | Diarrhoea (male Wistar rats [4]): 5/6 | Mesentery: Proliferation of fibroblasts (male Wistar rats [4]): 4/4 | Mesentery: multifocal perivascular mononuclear infiltration (=inflammation parameter) (male Wistar rats [4]): 4/4 | leukocytosis (white blood cells, FIG. 2B on the left) (male Wistar rats [1]): observed | neutrophilia (neutrophils in % of white blood cells, FIG. 2B on the right) (male Wistar rats [1]): observed | weight loss (body weight as percentage change from t0, FIG. 2A) (male Wistar rats [1]): observed | Diarrhoea (male Wistar rats [2]): 2/6 | Mesentery: Proliferation of fibroblasts (male Wistar rats [2]): 5/5 | Mesentery: multifocal perivascular mononuclear infiltration (=inflammation parameter) (male Wistar rats [2]): 5/5
